# Test results as given in patent US20260070945A1, “MACROCYCLIC IMMUNOMODULATORS” (Bristol-Myers Squibb Company, priority 2022, published 2026).
# *1 amine or outer side, *2 acyl side, *3 side chain or, on linkers, in order; H or OH if unused. Where a SMILES comes first, the peptide text is derived from it. Bridges are numbered along the chain shown (N, C = ends). [ ]: non-standard residue; d: D form. The star is where a group is joined. ξ: configuration not given here. Phe(3-CF3) = N[C@@H](Cc1cccc(C(F)(F)F)c1)C(=O)O; Phe(4-COOH) = N[C@@H](Cc1ccc(C(=O)O)cc1)C(=O)O; Bip = N[C@@H](Cc1ccc(-c2ccccc2)cc1)C(=O)O; Morpholine(3S-CO) = O=C(O)[C@@H]1COCCN1; NH(CH2)14COOH = O=C(O)CCCCCCCCCCCCCCN*; Phe(3-Me) = Cc1cccc(C[C@H](N)C(=O)O)c1; NMeAEEA = CN(CCOCCOCC(=O)[*:2])[*:1]; Val(3-OH) = CC(C)(O)[C@H](N)C(=O)O; hArg = N=C(N)NCCCC[C@H](N)C(=O)O; 3Pal = N[C@@H](Cc1cccnc1)C(=O)O; 4Pal = N[C@@H](Cc1ccncc1)C(=O)O; Cha = N[C@@H](CC1CCCCC1)C(=O)O; Cit = NC(=O)NCCC[C@H](N)C(=O)O; Ile(3ξ) = CCC(C)[C@H](N)C(=O)O; Thr(3ξ) = CC(O)[C@H](N)C(=O)O; dOrn = NCCC[C@@H](N)C(=O)O; Carboxymethyl = O=C(O)C*; NMeA = CN[C@@H](C)C(=O)O; Orn = NCCC[C@H](N)C(=O)O; Aun = NCCCCCCCCCCC(=O)O; Dab = NCC[C@H](N)C(=O)O; Dap = NC[C@H](N)C(=O)O; AEEA = NCCOCCOCC(=O)O
# Target: T1, PD-1/PD-L1 interaction (PE-labeled human PD-L1-Ig binding to Jurkat cell line over-expressing human PD-1) (Homo sapiens, UniProt Q15116)
# T1 construct: expressed in transfected cells; host or cells: Jurkat
# Test: Jurkat-PD-1 Cell Binding High-Content Screening Assay (CBA)
# Conditions: Jurkat-hPD-1 cells, PE-labeled PD-L1-Ig 20 nM final; read-out: Jurkat HPD1 PDL1 IC50
# Procedure, shortened: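 Jurkat-hPD-1 cells (8×10^3/well) in DMEM with 10% fetal calf serum were preincubated with compound for 2 h at 37 °C. PE-labeled PD-L1-Ig was then added at 20 nM final for 1 h. Cells were fixed in paraformaldehyde with Hoechst 33342, washed and imaged by high-content imaging.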
# T1 sequence (Q15116 25-288): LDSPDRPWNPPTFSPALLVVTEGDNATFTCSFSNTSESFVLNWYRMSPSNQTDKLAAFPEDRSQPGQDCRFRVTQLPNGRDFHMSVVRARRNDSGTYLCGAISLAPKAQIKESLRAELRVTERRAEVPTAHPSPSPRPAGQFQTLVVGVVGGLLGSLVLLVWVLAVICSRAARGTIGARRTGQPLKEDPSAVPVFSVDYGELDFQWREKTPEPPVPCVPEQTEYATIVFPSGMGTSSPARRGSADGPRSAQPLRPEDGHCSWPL
row,IC50 [nM],SMILES
1,591,CC(C)C[C@@H]1NC(=O)[C@H](Cc2c[nH]c3ccccc23)NC(=O)[C@H](CC(=O)O)NC(=O)[C@H](Cc2ccncc2)NC(=O)[C@H](Cc2ccc(OCC(=O)O)cc2)NC(=O)CSC[C@@H](C(=O)N2CCOC[C@H]2C(=O)NCCCCCCCCCCC(=O)O)NC(=O)[C@H](C(C)O)NC(=O)[C@H](C(C)C)NC(=O)[C@H](CC2CCCCC2)NC(=O)[C@H](CCN)NC(=O)[C@@H](CC(C)C)NC(=O)[C@H](C)N(C)C(=O)[C@H](C(C)C)NC(=O)[C@H](Cc2ccc(-c3ccccc3)cc2)NC1=O (stereo partly drawn) [Example 1222] ({CH2CO}-Y(Carboxymethyl)[4Pal]DWL[Bip]V[NMeA][dL][Dab][Cha]V[Thr(3ξ)]C[Morpholine(3S-CO)][Aun]-OH; thioether N-14)
2,33.4,Cc1cccc(C[C@@H]2NC(=O)[C@H](CC(=O)O)NC(=O)[C@H](Cc3ccc(OCC(=O)O)cc3)NC(=O)[C@H](Cc3cccnc3)NC(=O)CSC[C@@H](C(=O)N[C@@H](CCN)C(=O)NCCCCCCCCCCC(=O)O)NC(=O)[C@H](CO)NC(=O)[C@H](C(C)C)NC(=O)[C@H](CC3CCCCC3)NC(=O)[C@H](CCN)NC(=O)[C@@H](CC(C)C)NC(=O)[C@H](C)N(C)C(=O)[C@H](Cc3ccc(O)cc3)NC(=O)[C@H](Cc3ccc(-c4ccccc4)cc3)NC(=O)[C@H](Cc3ccc(OCC(=O)O)cc3)NC2=O)c1 [Example 1278] ({CH2CO}-[3Pal]Y(Carboxymethyl)D[Phe(3-Me)]Y(Carboxymethyl)[Bip]Y[NMeA][dL][Dab][Cha]VSC[Dab][Aun]-OH; thioether N-14)
3,40.7,CC[C@H](C)[C@@H]1NC(=O)[C@H](Cc2ccc(-c3ccccc3)cc2)NC(=O)[C@H](CC(C)C)NC(=O)[C@H](Cc2c[nH]c3ccccc23)NC(=O)[C@H](CC(=O)O)NC(=O)[C@H](Cc2ccc(C(=O)O)cc2)NC(=O)[C@H](Cc2ccc(OCC(=O)O)cc2)NC(=O)CSC[C@@H](C(=O)NCCOCCOCC(=O)NCCCCCCCCCCC(=O)O)NC(=O)[C@H](CO)NC(=O)[C@H](C(C)C)NC(=O)[C@H](CC2CCCCC2)NC(=O)[C@H](CCN)NC(=O)[C@@H](CC(C)C)NC(=O)[C@H](C)N(C)C1=O [Example 1069] ({CH2CO}-Y(Carboxymethyl)[Phe(4-COOH)]DWL[Bip]I[NMeA][dL][Dab][Cha]VSC[AEEA][Aun]-OH; thioether N-14)
4,9.5,CC(C)C[C@H]1NC(=O)[C@H](C)N(C)C(=O)[C@H](C(C)C)NC(=O)[C@H](Cc2ccc(-c3ccccc3)cc2)NC(=O)[C@H](C(C)C)NC(=O)[C@H](Cc2c[nH]c3ccccc23)NC(=O)[C@H](CC(=O)O)NC(=O)[C@H](Cc2ccc(OCC(=O)O)cc2)NC(=O)[C@H](CCCCNC(=N)N)NC(=O)CSC[C@@H](C(=O)NCC(=O)NCCOCCOCC(=O)N[C@@H](CCCN)C(=O)NCCCCCCCCCCC(=O)O)NC(=O)[C@H](CO)NC(=O)[C@H](C(C)C)NC(=O)[C@H](CC2CCCCC2)NC(=O)[C@H](CCN)NC1=O [Example 2084] ({CH2CO}-[hArg]Y(Carboxymethyl)DWV[Bip]V[NMeA][dL][Dab][Cha]VSCG[AEEA][Orn][Aun]-OH; thioether N-14)
5,59.8,Cc1cccc(C[C@@H]2NC(=O)[C@H](CC(=O)O)NC(=O)[C@H](Cc3ccc(OCC(=O)O)cc3)NC(=O)[C@H](CN)NC(=O)CSC[C@@H](C(=O)NCCCCCCCCCCC(=O)O)NC(=O)[C@H](CCCN)NC(=O)[C@H](C(C)C)NC(=O)[C@H](CC3CCCCC3)NC(=O)[C@H](CCN)NC(=O)[C@@H](CC(C)C)NC(=O)[C@H](C)N(C)C(=O)[C@H](Cc3ccc(O)cc3)NC(=O)[C@H](Cc3ccc(-c4ccccc4)cc3)NC(=O)[C@H](Cc3ccc(O)cc3)NC2=O)c1 [Example 1318] ({CH2CO}-[Dap]Y(Carboxymethyl)D[Phe(3-Me)]Y[Bip]Y[NMeA][dL][Dab][Cha]V[Orn]C[Aun]-OH; thioether N-14)
6,26.3,Cc1cccc(C[C@@H]2NC(=O)[C@H](CC(=O)O)NC(=O)[C@H](Cc3ccc(OCC(=O)O)cc3)NC(=O)[C@H](C(C)O)NC(=O)CSC[C@@H](C(=O)N(C)CCOCCOCC(=O)NCCCCCCCCCCC(=O)O)NC(=O)[C@H](CCCNC(N)=O)NC(=O)[C@H](C(C)C)NC(=O)[C@H](CC3CCCCC3)NC(=O)[C@H](CCN)NC(=O)[C@@H](CC(C)C)NC(=O)[C@H](C)N(C)C(=O)[C@H](C(C)C)NC(=O)[C@H](Cc3ccc(-c4ccccc4)cc3)NC(=O)[C@H](C(C)C)NC2=O)c1 (stereo partly drawn) [Example 2359] ({CH2CO}-[Thr(3ξ)]Y(Carboxymethyl)D[Phe(3-Me)]V[Bip]V[NMeA][dL][Dab][Cha]V[Cit]C[NMeAEEA][Aun]-OH; thioether N-14)
7,18,CC(C)C[C@@H]1NC(=O)[C@H](Cc2c[nH]c3ccccc23)NC(=O)[C@H](CC(=O)O)NC(=O)[C@H](Cc2ccncc2)NC(=O)[C@H](Cc2ccc(OCC(=O)O)cc2)NC(=O)CSC[C@@H](C(=O)N[C@@H](CCCN)C(=O)NCCCCCCCCCCC(=O)O)NC(=O)[C@H](CCC(N)=O)NC(=O)[C@H](C(C)C)NC(=O)[C@H](CC2CCCCC2)NC(=O)[C@H](CCN)NC(=O)[C@@H](CC(C)C)NC(=O)[C@H](C)N(C)C(=O)[C@H](C(C)C)NC(=O)[C@H](Cc2ccc(-c3ccccc3)cc2)NC1=O [Example 1342] ({CH2CO}-Y(Carboxymethyl)[4Pal]DWL[Bip]V[NMeA][dL][Dab][Cha]VQC[Orn][Aun]-OH; thioether N-14)
8,18.5,CCC(C)[C@@H]1NC(=O)[C@H](Cc2ccc(-c3ccccc3)cc2)NC(=O)[C@H](CC(C)C)NC(=O)[C@H](Cc2c[nH]c3ccccc23)NC(=O)[C@H](CC(=O)O)NC(=O)[C@H](Cc2ccc(O)cc2)NC(=O)[C@H](Cc2ccncc2)NC(=O)CSC[C@@H](C(=O)N[C@H](CCCN)C(=O)NCCOCCOCC(=O)NCCCCCCCCCCC(=O)O)NC(=O)[C@H](CO)NC(=O)[C@H](C(C)C)NC(=O)[C@H](CC2CCCCC2)NC(=O)[C@H](CCN)NC(=O)[C@@H](CC(C)C)NC(=O)[C@H](C)N(C)C1=O (stereo partly drawn) [Example 2086] ({CH2CO}-[4Pal]YDWL[Bip][Ile(3ξ)][NMeA][dL][Dab][Cha]VSC[dOrn][AEEA][Aun]-OH; thioether N-14)

# Same assay, conditions: PE-labeled PD-L1-Ig 20 nM final, Jurkat-hPD-1 cells; read-out: Jurkat HPD1 PDL1 IC50
row,IC50 [nM],SMILES
1,164,CC(C)C[C@H]1NC(=O)[C@H](C)N(C)C(=O)[C@H](CCC(N)=O)NC(=O)[C@H](Cc2ccc(-c3ccccc3)cc2)NC(=O)[C@H](Cc2ccc(OCC(=O)O)cc2)NC(=O)[C@H](Cc2cccc(C(F)(F)F)c2)NC(=O)[C@H](CC(=O)O)NC(=O)[C@H](Cc2ccc(OCC(=O)O)cc2)NC(=O)[C@H](Cc2ccc(OCC(=O)O)cc2)NC(=O)CSC[C@@H](C(=O)N[C@@H](CCN)C(=O)NCCOCCOCC(=O)NCCOCCOCC(=O)N[C@H](CCC(=O)NCCCCCCCCCCCCCCC(=O)O)C(=O)O)NC(=O)[C@H](Cc2cnc[nH]2)NC(=O)[C@H](C(C)(C)O)NC(=O)[C@H](CC2CCCCC2)NC(=O)[C@H](CCN)NC1=O [Example 2627] ({CH2CO}-Y(Carboxymethyl)Y(Carboxymethyl)D[Phe(3-CF3)]Y(Carboxymethyl)[Bip]Q[NMeA][dL][Dab][Cha][Val(3-OH)]HC[Dab][AEEA][AEEA][dE](NH(CH2)14COOH)-OH; thioether N-14)
